Experimental data from US20210317134A1, “UBIQUITIN-SPECIFIC-PROCESSING PROTEASE 7 (USP7) MODULATORS AND USES THEREOF” (RAPT THERAPEUTICS, INC., priority 2019, published 2021).

Target: USP7 (Homo sapiens, UniProt Q93009)
Test: USP7 inhibitory potency (Table 1)
Format: biochemical

Chain of USP7 (Q93009 whole entry): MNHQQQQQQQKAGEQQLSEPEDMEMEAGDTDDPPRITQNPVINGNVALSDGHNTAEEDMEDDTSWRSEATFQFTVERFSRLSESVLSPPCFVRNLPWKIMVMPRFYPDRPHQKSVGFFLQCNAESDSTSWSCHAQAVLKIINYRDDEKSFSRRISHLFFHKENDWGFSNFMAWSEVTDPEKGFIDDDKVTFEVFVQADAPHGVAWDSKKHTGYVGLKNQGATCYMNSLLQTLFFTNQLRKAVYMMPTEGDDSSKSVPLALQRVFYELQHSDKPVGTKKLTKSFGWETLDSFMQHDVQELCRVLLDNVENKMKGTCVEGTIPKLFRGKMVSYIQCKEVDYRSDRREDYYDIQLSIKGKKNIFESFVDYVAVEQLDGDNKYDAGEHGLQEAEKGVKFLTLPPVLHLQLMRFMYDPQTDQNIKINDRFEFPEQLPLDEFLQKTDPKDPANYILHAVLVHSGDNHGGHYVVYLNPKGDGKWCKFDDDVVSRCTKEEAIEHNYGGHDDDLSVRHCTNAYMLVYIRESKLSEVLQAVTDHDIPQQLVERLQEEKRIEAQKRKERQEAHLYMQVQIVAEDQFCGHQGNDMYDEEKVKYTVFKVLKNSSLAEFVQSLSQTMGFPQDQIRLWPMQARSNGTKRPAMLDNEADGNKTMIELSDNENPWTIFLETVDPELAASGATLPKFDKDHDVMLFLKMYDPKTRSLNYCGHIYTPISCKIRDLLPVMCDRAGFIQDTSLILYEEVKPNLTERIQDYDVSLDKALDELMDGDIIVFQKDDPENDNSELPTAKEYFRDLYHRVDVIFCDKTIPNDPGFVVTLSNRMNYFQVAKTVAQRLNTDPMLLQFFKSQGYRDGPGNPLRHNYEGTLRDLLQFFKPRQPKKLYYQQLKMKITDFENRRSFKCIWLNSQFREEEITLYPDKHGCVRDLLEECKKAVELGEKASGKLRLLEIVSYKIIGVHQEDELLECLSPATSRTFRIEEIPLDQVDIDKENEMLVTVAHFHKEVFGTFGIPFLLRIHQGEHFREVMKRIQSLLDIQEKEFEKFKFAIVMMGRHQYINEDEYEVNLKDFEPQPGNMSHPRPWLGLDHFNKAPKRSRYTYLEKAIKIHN

| SMILES | IC50 [nM] |
| --- | --- |
| CN(C)Cc1ncoc1[C@H]1Cc2cc(Cl)cc(-c3ncnc4ccsc34)c2O1 [(R)-1-(5-(5-chloro-7-(thieno[3,2-d]pyrimidin-4-yl)-2,3-dihydrobenzofuran-2-yl)oxazol-4-yl)-N,N-dimethylmethanamine] | 1000 to 10000 |
| OC1(c2cc3nccc(-c4cc(Cl)cc5c4O[C@@H](c4onc6c4CNCC6)C5)c3s2)CCC1 [(R)-1-(7-(5-chloro-2-(4,5,6,7-tetrahydroisoxazolo[4,3-c]pyridin-3-yl)-2,3-dihydrobenzofuran-7-yl)thieno[3,2-b]pyridin-2-yl)cyclobutan-1-ol] | < 1000 |
| CC[C@@H](O)c1cc2nccc(-c3cc(Cl)cc4c3O[C@@H](c3onc5c3CNCC5)C4)c2s1 [(R)-1-(7-((R)-5-chloro-2-(4,5,6,7-tetrahydroisoxazolo[4,3-c]pyridin-3-yl)-2,3-dihydrobenzofuran-7-yl)thieno[3,2-b]pyridin-2-yl)propan-1-ol] | < 1000 |
| CC[C@@H](O)c1cc2nccc(-c3cc(Cl)cc4c3O[C@@](C)(c3onc5c3CNCC5)C4)c2s1 [(R)-1-(7-((R)-5-chloro-2-methyl-2-(4,5,6,7-tetrahydroisoxazolo[4,3-c]pyridin-3-yl)-2,3-dihydrobenzofuran-7-yl)thieno[3,2-b]pyridin-2-yl)propan-1-ol] | < 1000 |
| CC[C@@H](O)c1cc2nccc(-c3cc(Cl)cc4c3O[C@](C)(c3onc5c3CNCC5)C4)c2s1 [(R)-1-(7-((S)-5-chloro-2-methyl-2-(4,5,6,7-tetrahydroisoxazolo[4,3-c]pyridin-3-yl)-2,3-dihydrobenzofuran-7-yl)thieno[3,2-b]pyridin-2-yl)propan-1-ol] | < 1000 |
| O=C1CCC(=O)N1Cc1cc2ncnc(-c3cc(Cl)cc4c3O[C@@H](c3onc5c3CNCC5)C4)c2o1 [(R)-1-((4-(5-chloro-2-(4,5,6,7-tetrahydroisoxazolo[4,3-c]pyridin-3-yl)-2,3-dihydrobenzofuran-7-yl)furo[3,2-d]pyrimidin-6-yl)methyl)pyrrolidine-2,5-dione] | < 1000 |
| O=C1CCC(=O)N1Cc1ccc2c(-c3cc(Cl)cc4c3O[C@@H](c3onc5c3CNCC5)C4)ccnc2c1 [(R)-1-((4-(5-chloro-2-(4,5,6,7-tetrahydroisoxazolo[4,3-c]pyridin-3-yl)-2,3-dihydrobenzofuran-7-yl)quinolin-7-yl)methyl)pyrrolidine-2,5-dione] | 1000 to 10000 |
| O=C1CCC(=O)N1Cc1cc2ncnc(-c3cc(Cl)cc4c3O[C@@H](c3onc5c3CNCC5)C4)c2s1 [(R)-1-((4-(5-chloro-2-(4,5,6,7-tetrahydroisoxazolo[4,3-c]pyridin-3-yl)-2,3-dihydrobenzofuran-7-yl)thieno[3,2-d]pyrimidin-6-yl)methyl)pyrrolidine-2,5-dione] | < 1000 |
| O=C([C@H]1Cc2cc(Cl)cc(-c3ncnc4cc(CN5C(=O)CCC5=O)oc34)c2O1)N1CCNCC1 [(R)-1-((4-(5-chloro-2-(piperazine-1-carbonyl)-2,3-dihydrobenzofuran-7-yl)furo[3,2-d]pyrimidin-6-yl)methyl)pyrrolidine-2,5-dione] | < 1000 |
| O=C([C@H]1Cc2cc(Cl)cc(-c3ccnc4cc(CN5C(=O)CCC5=O)ccc34)c2O1)N1CCNCC1 [(R)-1-((4-(5-chloro-2-(piperazine-1-carbonyl)-2,3-dihydrobenzofuran-7-yl)quinolin-7-yl)methyl)pyrrolidine-2,5-dione] | < 1000 |
| O=C([C@H]1Cc2cc(Cl)cc(-c3ncnc4cc(CN5C(=O)CCC5=O)sc34)c2O1)N1CCNCC1 [(R)-1-((4-(5-chloro-2-(piperazine-1-carbonyl)-2,3-dihydrobenzofuran-7-yl)thieno[3,2-d]pyrimidin-6-yl)methyl)pyrrolidine-2,5-dione] | < 1000 |
| Cn1nc2c(c1[C@H]1Cc3cc(Cl)cc(-c4ccnc5cc(CN6C(=O)CCC6=O)sc45)c3O1)CNCC2 [(R)-1-((7-(5-chloro-2-(2-methyl-4,5,6,7-tetrahydro-2H-pyrazolo[4,3-c]pyridin-3-yl)-2,3-dihydrobenzofuran-7-yl)thieno[3,2-b]pyridin-2-yl)methyl)pyrrolidine-2,5-dione] | < 1000 |
| O=C1CCC(=O)N1Cc1cc2nccc(-c3cc(Cl)cc4c3O[C@@H](c3onc5c3CNCC5)C4)n2n1 [(R)-1-((7-(5-chloro-2-(4,5,6,7-tetrahydroisoxazolo[4,3-c]pyridin-3-yl)-2,3-dihydrobenzofuran-7-yl)pyrazolo[1,5-a]pyrimidin-2-yl)methyl)pyrrolidine-2,5-dione] | < 1000 |
| O=C1CCC(=O)N1Cc1cc2nccc(-c3cc(Cl)cc4c3O[C@@H](c3onc5c3CNCC5)C4)c2s1 [(R)-1-((7-(5-chloro-2-(4,5,6,7-tetrahydroisoxazolo[4,3-c]pyridin-3-yl)-2,3-dihydrobenzofuran-7-yl)thieno[3,2-b]pyridin-2-yl)methyl)pyrrolidine-2,5-dione] | < 1000 |
| COc1ccc(CN2C(=O)CN(Cc3cc4nccc(-c5cc(Cl)cc6c5O[C@@H](C(=O)N5CCNCC5)C6)c4s3)C2=O)cc1 [(R)-1-((7-(5-chloro-2-(piperazine-1-carbonyl)-2,3-dihydrobenzofuran-7-yl)thieno[3,2-b]pyridin-2-yl)methyl)-3-(4-methoxybenzyl)imidazolidine-2,4-dione] | < 1000 |
| CN1CCN(Cc2cc3nccc(-c4cc(Cl)cc5c4O[C@@H](C(=O)N4CCNCC4)C5)c3s2)C1=O [(R)-1-((7-(5-chloro-2-(piperazine-1-carbonyl)-2,3-dihydrobenzofuran-7-yl)thieno[3,2-b]pyridin-2-yl)methyl)-3-methylimidazolidin-2-one] | < 1000 |

| SMILES | IC50 [nM] |
| --- | --- |
| O=C1CN(Cc2cc3nccc(-c4cc(Cl)cc5c4O[C@@H](C(=O)N4CCNCC4)C5)c3s2)C(=O)N1 [(R)-1-((7-(5-chloro-2-(piperazine-1-carbonyl)-2,3-dihydrobenzofuran-7-yl)thieno[3,2-b]pyridin-2-yl)methyl)imidazolidine-2,4-dione] | < 1000 |
| O=C([C@H]1Cc2cc(Cl)cc(-c3ccnc4cc(CN5C(=O)CCCC5=O)sc34)c2O1)N1CCNCC1 [(R)-1-((7-(5-chloro-2-(piperazine-1-carbonyl)-2,3-dihydrobenzofuran-7-yl)thieno[3,2-b]pyridin-2-yl)methyl)piperidine-2,6-dione] | < 1000 |
| O=C1CCCN1Cc1cc2nccc(-c3cc(Cl)cc4c3O[C@@H](C(=O)N3CCNCC3)C4)c2s1 [(R)-1-((7-(5-chloro-2-(piperazine-1-carbonyl)-2,3-dihydrobenzofuran-7-yl)thieno[3,2-b]pyridin-2-yl)methyl)pyrrolidin-2-one] | < 1000 |
| C[C@@H]1CCN(Cc2cc3nccc(-c4cc(Cl)cc5c4O[C@@H](C(=O)N4CCNCC4)C5)c3s2)C1=O [(R)-1-((7-((R)-5-chloro-2-(piperazine-1-carbonyl)-2,3-dihydrobenzofuran-7-yl)thieno[3,2-b]pyridin-2-yl)methyl)-3-methylpyrrolidin-2-one] | < 1000 |
| O=C([C@H]1Cc2cc(Cl)cc(-c3ccnc4cc(CCN5C(=O)c6ccccc6C5=O)sc34)c2O1)N1CCNCC1 [(R)-2-(2-(7-(5-chloro-2-(piperazine-1-carbonyl)-2,3-dihydrobenzofuran-7-yl)thieno[3,2-b]pyridin-2-yl)ethyl)isoindoline-1,3-dione] | < 1000 |
| OCCN1CCc2noc([C@H]3Cc4cc(Cl)cc(-c5ncnc6ccoc56)c4O3)c2C1 [(R)-2-(3-(5-chloro-7-(furo[3,2-d]pyrimidin-4-yl)-2,3-dihydrobenzofuran-2-yl)-6,7-dihydroisoxazolo[4,3-c]pyridin-5(4H)-yl)ethan-1-ol] | 1000 to 10000 |
| CN(C)S(=O)(=O)CCc1cc2nccc(-c3cc(Cl)cc4c3O[C@@H](C(=O)N3CCNCC3)C4)c2s1 [(R)-2-(7-(5-chloro-2-(piperazine-1-carbonyl)-2,3-dihydrobenzofuran-7-yl)thieno[3,2-b]pyridin-2-yl)-N,N-dimethylethane-1-sulfonamide] | < 1000 |
| NS(=O)(=O)CCc1cc2nccc(-c3cc(Cl)cc4c3O[C@@H](C(=O)N3CCNCC3)C4)c2s1 [(R)-2-(7-(5-chloro-2-(piperazine-1-carbonyl)-2,3-dihydrobenzofuran-7-yl)thieno[3,2-b]pyridin-2-yl)ethane-1-sulfonamide] | < 1000 |
| O=C([C@H]1Cc2cc(Cl)cc(-c3ccnc4cc(CN5C(=O)c6ccccc6C5=O)sc34)c2O1)N1CCNCC1 [(R)-2-((7-(5-chloro-2-(piperazine-1-carbonyl)-2,3-dihydrobenzofuran-7-yl)thieno[3,2-b]pyridin-2-yl)methyl)isoindoline-1,3-dione] | < 1000 |
| CCc1cc2nccc(-c3cc(Cl)cc4c3O[C@@H](c3onc5c3CNCC5)C4)c2s1 [(R)-3-(5-chloro-7-(2-ethylthieno[3,2-b]pyridin-7-yl)-2,3-dihydrobenzofuran-2-yl)-4,5,6,7-tetrahydroisoxazolo[4,3-c]pyridine] | < 1000 |
| Cc1cc2nccc(-c3cc(Cl)cc4c3O[C@@H](c3onc5c3CNCC5)C4)c2s1 [(R)-3-(5-chloro-7-(2-methylthieno[3,2-b]pyridin-7-yl)-2,3-dihydrobenzofuran-2-yl)-4,5,6,7-tetrahydroisoxazolo[4,3-c]pyridine] | < 1000 |
| Cc1nc(-c2cc(Cl)cc3c2O[C@@H](c2onc4c2CNCC4)C3)c2sccc2n1 [(R)-3-(5-chloro-7-(2-methylthieno[3,2-d]pyrimidin-4-yl)-2,3-dihydrobenzofuran-2-yl)-4,5,6,7-tetrahydroisoxazolo[4,3-c]pyridine] | 10000 to 30000 |
| CCC1(CC)Cc2nccc(-c3cc(Cl)cc4c3O[C@@H](c3onc5c3CNCC5)C4)c2C1 [(R)-3-(5-chloro-7-(6,6-diethyl-6,7-dihydro-5H-cyclopenta[b]pyridin-4-yl)-2,3-dihydrobenzofuran-2-yl)-4,5,6,7-tetrahydroisoxazolo[4,3-c]pyridine] | 1000 to 10000 |
| Clc1cc2c(c(-c3ncnc4c3CCC4)c1)O[C@@H](c1onc3c1CNCC3)C2 [(R)-3-(5-chloro-7-(6,7-dihydro-5H-cyclopenta[d]pyrimidin-4-yl)-2,3-dihydrobenzofuran-2-yl)-4,5,6,7-tetrahydroisoxazolo[4,3-c]pyridine] | 10000 to 30000 |
| Fc1ccc2nccc(-c3cc(Cl)cc4c3O[C@@H](c3onc5c3CNCC5)C4)c2c1 [(R)-3-(5-chloro-7-(6-fluoroquinolin-4-yl)-2,3-dihydrobenzofuran-2-yl)-4,5,6,7-tetrahydroisoxazolo[4,3-c]pyridine] | < 1000 |
